In BigSolDB 2.1:

Cn1cnc([N+](=O)[O-])c1Cl
Conditions | solubility (mole fraction)
in 1,4-dioxane, 283.15 K | 0.00714
in 1,4-dioxane, 285.65 K | 0.00797
in 1,4-dioxane, 288.15 K | 0.00882
in 1,4-dioxane, 290.65 K | 0.00986
in 1,4-dioxane, 293.15 K | 0.0109
in 1,4-dioxane, 295.65 K | 0.0119
in 1,4-dioxane, 298.15 K | 0.0129
in 1,4-dioxane, 300.65 K | 0.014
in 1,4-dioxane, 303.15 K | 0.0151
in 1,4-dioxane, 305.65 K | 0.0161
in 1,4-dioxane, 308.15 K | 0.0173
in 1,4-dioxane, 310.65 K | 0.0186
in 1,4-dioxane, 313.15 K | 0.0198
in 1,4-dioxane, 315.65 K | 0.021
in 1,4-dioxane, 318.15 K | 0.0225
in 2-butanone, 283.15 K | 0.0145
in 2-butanone, 285.65 K | 0.016
in 2-butanone, 288.15 K | 0.0176
in 2-butanone, 290.65 K | 0.0194
in 2-butanone, 293.15 K | 0.0214
in 2-butanone, 295.65 K | 0.0235
in 2-butanone, 298.15 K | 0.0259
in 2-butanone, 300.65 K | 0.0282
in 2-butanone, 303.15 K | 0.0308
in 2-butanone, 305.65 K | 0.0335
in 2-butanone, 308.15 K | 0.0368
in 2-butanone, 310.65 K | 0.04
in 2-butanone, 313.15 K | 0.0434
in 2-butanone, 315.65 K | 0.0474
in 2-butanone, 318.15 K | 0.0512
in NMP, 283.15 K | 0.157
in NMP, 285.65 K | 0.162
in NMP, 288.15 K | 0.168
in NMP, 290.65 K | 0.174
in NMP, 293.15 K | 0.181
in NMP, 295.65 K | 0.188
in NMP, 298.15 K | 0.195
in NMP, 300.65 K | 0.202
in NMP, 303.15 K | 0.209
in NMP, 305.65 K | 0.217
in NMP, 308.15 K | 0.224
in NMP, 310.65 K | 0.233
in NMP, 313.15 K | 0.242
in NMP, 315.65 K | 0.252
in NMP, 318.15 K | 0.261
in acetone, 283.15 K | 0.0181
in acetone, 285.65 K | 0.0202
in acetone, 288.15 K | 0.0222
in acetone, 290.65 K | 0.0248
in acetone, 293.15 K | 0.027
in acetone, 295.65 K | 0.0299
in acetone, 298.15 K | 0.0326
in acetone, 300.65 K | 0.0358
in acetone, 303.15 K | 0.0391
in acetone, 305.65 K | 0.0426
in acetone, 308.15 K | 0.0465
in acetone, 310.65 K | 0.0508
in acetone, 313.15 K | 0.0555
in acetone, 315.65 K | 0.06
in acetone, 318.15 K | 0.0656
in chloroform, 283.15 K | 0.0132
in chloroform, 285.65 K | 0.0142
in chloroform, 288.15 K | 0.0156
in chloroform, 290.65 K | 0.017
in chloroform, 293.15 K | 0.0185
in chloroform, 295.65 K | 0.0201
in chloroform, 298.15 K | 0.0219
in chloroform, 300.65 K | 0.0236
in chloroform, 303.15 K | 0.0255
in chloroform, 305.65 K | 0.0276
in chloroform, 308.15 K | 0.0298
in chloroform, 310.65 K | 0.0322
in chloroform, 313.15 K | 0.0345
in chloroform, 315.65 K | 0.0372
in chloroform, 318.15 K | 0.0399
in ethanol, 283.15 K | 0.00218
in ethanol, 285.65 K | 0.00235
in ethanol, 288.15 K | 0.00259
in ethanol, 290.65 K | 0.00283
in ethanol, 293.15 K | 0.00313
in ethanol, 295.65 K | 0.00347
in ethanol, 298.15 K | 0.00381
in ethanol, 300.65 K | 0.00417
in ethanol, 303.15 K | 0.00456
in ethanol, 305.65 K | 0.00497
in ethanol, 308.15 K | 0.00539
in ethanol, 310.65 K | 0.00587
in ethanol, 313.15 K | 0.00643
in ethanol, 315.65 K | 0.00705
in ethanol, 318.15 K | 0.00784
in ethyl acetate, 283.15 K | 0.00846
in ethyl acetate, 285.65 K | 0.00911
in ethyl acetate, 288.15 K | 0.00983
in ethyl acetate, 290.65 K | 0.0108
in ethyl acetate, 293.15 K | 0.0118
in ethyl acetate, 295.65 K | 0.0128
in ethyl acetate, 298.15 K | 0.0139
in ethyl acetate, 300.65 K | 0.015
in ethyl acetate, 303.15 K | 0.0162
in ethyl acetate, 305.65 K | 0.0177
in ethyl acetate, 308.15 K | 0.0191
in ethyl acetate, 310.65 K | 0.0204
in ethyl acetate, 313.15 K | 0.0218
in ethyl acetate, 315.65 K | 0.0235
in ethyl acetate, 318.15 K | 0.0253
in isopropanol, 283.15 K | 0.00108
in isopropanol, 285.65 K | 0.00125
in isopropanol, 288.15 K | 0.00142
in isopropanol, 290.65 K | 0.00158
in isopropanol, 293.15 K | 0.00176
in isopropanol, 295.65 K | 0.00195
in isopropanol, 298.15 K | 0.00219
in isopropanol, 300.65 K | 0.00247
in isopropanol, 303.15 K | 0.00278
in isopropanol, 305.65 K | 0.00313
in isopropanol, 308.15 K | 0.00352
in isopropanol, 310.65 K | 0.00408
in isopropanol, 313.15 K | 0.00468
in isopropanol, 315.65 K | 0.00533
in isopropanol, 318.15 K | 0.00593
in methanol, 283.15 K | 0.0028
in methanol, 285.65 K | 0.00316
in methanol, 288.15 K | 0.00349
in methanol, 290.65 K | 0.00385
in methanol, 293.15 K | 0.0042
in methanol, 295.65 K | 0.0046
in methanol, 298.15 K | 0.00506
in methanol, 300.65 K | 0.00554
in methanol, 303.15 K | 0.00603
in methanol, 305.65 K | 0.00651
in methanol, 308.15 K | 0.00699
in methanol, 310.65 K | 0.00756
in methanol, 313.15 K | 0.00811
in methanol, 315.65 K | 0.0087
in methanol, 318.15 K | 0.00936
in n-propanol, 283.15 K | 0.00152
in n-propanol, 285.65 K | 0.00168
in n-propanol, 288.15 K | 0.00187
in n-propanol, 290.65 K | 0.00208
in n-propanol, 293.15 K | 0.00232
in n-propanol, 295.65 K | 0.00258
in n-propanol, 298.15 K | 0.00282
in n-propanol, 300.65 K | 0.00308
in n-propanol, 303.15 K | 0.00342
in n-propanol, 305.65 K | 0.0038
in n-propanol, 308.15 K | 0.00418
in n-propanol, 310.65 K | 0.00468
in n-propanol, 313.15 K | 0.00522
in n-propanol, 315.65 K | 0.00592
in n-propanol, 318.15 K | 0.0066
in toluene, 283.15 K | 0.00194
in toluene, 285.65 K | 0.00208
in toluene, 288.15 K | 0.00228
in toluene, 290.65 K | 0.00248
in toluene, 293.15 K | 0.00272
in toluene, 295.65 K | 0.00298
in toluene, 298.15 K | 0.00325
in toluene, 300.65 K | 0.00358
in toluene, 303.15 K | 0.0039
in toluene, 305.65 K | 0.00428
in toluene, 308.15 K | 0.00468
in toluene, 310.65 K | 0.00518
in toluene, 313.15 K | 0.00568
in toluene, 315.65 K | 0.00622
in toluene, 318.15 K | 0.00683
